Assay results: patent US20050101595A1, “N-containing cycloalkyl-substituted amino-thiazole derivatives and pharmaceutical compositions for inhibiting cell proliferation and methods for their use” (PFIZER INC., priority 2003, published 2005)
Where a name gives a salt, the structure may show the parent alone. Read-outs that look alike come from different tables or passages of the source. Each block holds one compound with its values, some of them ahead of it.

Experiments:
[1] = molecular target: human CDK4 and genetically truncated (1-264) cyclin D3 (Homo sapiens, UniProt P11802); test: Inhibition of CDK4/Cyclin D Retinoblastoma Kinase Activity; assay type: biochemical; details: for Ki: apparent Ki, CDK4/truncated cyclin D3, Rb fragment substrate, 25 μM ATP
Chain of human CDK4 and genetically truncated (1-264) cyclin D3 (P11802 whole entry, the tested form may be a part): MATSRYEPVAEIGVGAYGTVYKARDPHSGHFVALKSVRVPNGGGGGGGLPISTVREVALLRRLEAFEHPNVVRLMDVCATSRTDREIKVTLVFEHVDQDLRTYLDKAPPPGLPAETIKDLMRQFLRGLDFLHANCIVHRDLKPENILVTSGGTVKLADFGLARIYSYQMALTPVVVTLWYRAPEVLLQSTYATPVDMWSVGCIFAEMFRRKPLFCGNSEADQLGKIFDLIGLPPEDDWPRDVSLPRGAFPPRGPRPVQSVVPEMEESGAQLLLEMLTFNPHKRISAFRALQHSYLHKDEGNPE
Chain of human CDK4 and genetically truncated (1-264) cyclin D3 (P30281 1-264 partner): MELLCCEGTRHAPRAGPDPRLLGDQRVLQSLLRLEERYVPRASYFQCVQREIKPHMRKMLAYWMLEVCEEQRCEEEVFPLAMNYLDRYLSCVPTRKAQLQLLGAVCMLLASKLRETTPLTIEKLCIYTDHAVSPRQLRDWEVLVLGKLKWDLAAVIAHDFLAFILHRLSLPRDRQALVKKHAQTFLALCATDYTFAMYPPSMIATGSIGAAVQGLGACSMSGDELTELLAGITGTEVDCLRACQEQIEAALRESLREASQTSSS
Procedure, shortened: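 Apparent Ki values come from competitive or competitive tight-binding inhibition fits of background-corrected 32P/33P incorporation into His-tagged Rb fragment (386-928), captured on nitrocellulose. Reaction: 5 nM insect-cell-expressed human CDK4 with cyclin D3 (1-264), 25 μM ATP, pH 7.4 HEPES, 2% DMSO, 30° C., 20 min, extended to 60 min for tight-binding inhibitors.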

HCT-116 cell line = test: Inhibition of cell growth, tetrazolium salt (MTT) assay; assay type: cell-based; details: for HCT-116 % Inhibition at 0.25 μM: 0.25 μM compound; for IC50: Homo sapiens, HCT-116, 120 h, MTT, three to five days, read-out: HCT-116 IC50
Procedure, shortened: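 First, cells were seeded in McCoy's 5A medium and held 4 h. Next, inhibitor concentrations in 0.5% (v/v) DMSO were applied for three to five days at 37° C, 5% CO2. Finally, after 4 h with 0.2 mg/mL MTT and medium removal, solubilized formazan was measured at 540 nm.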

CDK2/Cyclin A = CDK2/Cyclin A (Homo sapiens, UniProt P24941); test: Inhibition of CDK2/Cyclin A Retinoblastoma Kinase Activity; assay type: biochemical; details: for Ki: apparent Ki, CDK2/proteolyzed cyclin A, Rb fragment substrate, 25 μM ATP
Procedure, shortened: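 Radiometric filter-binding readout of phosphate transfer to an Rb substrate fragment by purified CDK2/truncated cyclin A at 10 or 19 nM. Run at pH 7.4 with 25 μM ATP, 30 °C, 60–75 min, linear rates; background without enzyme subtracted, Ki from competitive-inhibition models.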

[2] = 0.1 μM compound, HCT-116, Table 3
[3] = 0.1 μM compound, HCT-116, Table 4

CDK4 % Inhibition at 0.03 μM ([1]; at 0.03 μM): 6%
CDK2 % Inhibition at 0.03 μM (CDK2/Cyclin A; at 0.03 μM): 7%
Compound: CC(C(=O)N1CCC(Nc2nc(N)c(C(=O)c3c(F)cccc3F)s2)CC1)c1ccccc1 (centres unmarked) [Example R160]
HCT-116 % Inhibition at 0.1 μM (HCT-116 cell line; HCT-116 cells, at 0.1 μM): 0%
HCT-116 5 Inhibition at 0.25 μM (HCT-116 cell line; HCT-116 cells): 37

CDK4 % Inhibition at 0.03 μM ([1]; at 0.03 μM): 14%
CDK2 % Inhibition at 0.03 μM (CDK2/Cyclin A; at 0.03 μM): −1%
Compound: Nc1nc(NC2CCN(C(=O)C3(c4ccc(Cl)cc4)CC3)CC2)sc1C(=O)c1c(F)cccc1F [Example R91]
HCT-116 % Inhibition at 0.1 μM (HCT-116 cell line; HCT-116 cells, at 0.1 μM): 2%
HCT-116 5 Inhibition at 0.25 μM (HCT-116 cell line; HCT-116 cells): 41

CDK4 % Inhibition at 0.03 μM ([1]; at 0.03 μM): 32%
CDK2 % Inhibition at 0.03 μM (CDK2/Cyclin A; at 0.03 μM): 16%
Compound: Cc1nn(C)c2ccc(C(=O)N3CCC(Nc4nc(N)c(C(=O)c5c(F)cccc5F)s4)CC3)c(Cl)c12 [Example R48]
HCT-116 % Inhibition at 0.1 μM (HCT-116 cell line; HCT-116 cells, at 0.1 μM): 0%
HCT-116 5 Inhibition at 0.25 μM (HCT-116 cell line; HCT-116 cells): 50

CDK4 % Inhibition at 0.03 μM ([1]; at 0.03 μM): 52%
CDK2 % Inhibition at 0.03 μM (CDK2/Cyclin A; at 0.03 μM): 21%
Compound: CCN1CCN(C(=O)N2CCC(Nc3nc(N)c(C(=O)c4c(F)cccc4F)s3)CC2)C(=O)C1=O [Example R83]
HCT-116 % Inhibition at 0.1 μM (HCT-116 cell line; HCT-116 cells, at 0.1 μM): 0%
HCT-116 5 Inhibition at 0.25 μM (HCT-116 cell line; HCT-116 cells): 45

Second part, the compound before the results:

Compound: CCCCOc1ccc(S(=O)(=O)N2CCC(Nc3nc(N)c(C(=O)c4c(F)cccc4F)s3)CC2)cc1 [Example P49]
CDK4 % Inhibition at 0.03 μM ([1]; 0.03 μM compound, Table 3): 54%
HCT-116 % Inhibition at 0.1 μM (HCT-116 cell line; [2]): 10%
HCT-116 % Inhibition at 0.25 μM (HCT-116 cell line; HCT-116, Table 3): 32%
CDK2 % Inhibition at 0.03 μM (CDK2/Cyclin A; 0.03 μM compound, Table 3): 36%

Compound: COC(=O)CCC(=O)N1CCC(Nc2nc(N)c(C(=O)c3c(F)cccc3F)s2)CC1 [Example Q49]
CDK4 % Inhibition at 0.03 μM ([1]; 0.03 μM compound, Table 4): 24%
HCT-116 % Inhibition at 0.1 μM (HCT-116 cell line; [3]): 0%
HCT-116 % Inhibition at 0.25 μM (HCT-116 cell line; HCT-116, Table 4): 28%
CDK2 % Inhibition at 0.03 μM (CDK2/Cyclin A; 0.03 μM compound, Table 4): 16%

Compound: Nc1nc(NC2CCN(C(=O)c3ccccc3I)CC2)sc1C(=O)c1c(F)cccc1F [Example Q52]
CDK4 % Inhibition at 0.03 μM ([1]; 0.03 μM compound, Table 4): 53%
HCT-116 % Inhibition at 0.1 μM (HCT-116 cell line; [3]): 0%
HCT-116 % Inhibition at 0.25 μM (HCT-116 cell line; HCT-116, Table 4): 24%
CDK2 % Inhibition at 0.03 μM (CDK2/Cyclin A; 0.03 μM compound, Table 4): 24%

Compound: COC(=O)c1cc(NC(=O)N2CCC(Nc3nc(N)c(C(=O)c4c(F)cccc4F)s3)CC2)cc(C(=O)OC)c1 [Example O59]
CDK4 % Inhibition at 0.03 μM ([1]; 0.03 μM compound, Table 2): 7%
HCT-116 % Inhibition at 0.25 μM (HCT-116 cell line; HCT-116, Table 2): 32%
CDK2 % Inhibition At 0.03 μM (CDK2/Cyclin A; 0.03 μM compound, Table 2): 28%

Compound: Nc1nc(NC2CCN(S(=O)(=O)Cc3ccccc3)CC2)sc1C(=O)c1c(F)cccc1F [Example P25]
CDK4 % Inhibition at 0.03 μM ([1]; 0.03 μM compound, Table 3): 82%
HCT-116 % Inhibition at 0.1 μM (HCT-116 cell line; [2]): 8%
HCT-116 % Inhibition at 0.25 μM (HCT-116 cell line; HCT-116, Table 3): 33%
CDK2 % Inhibition at 0.03 μM (CDK2/Cyclin A; 0.03 μM compound, Table 3): 62%

Compound: Nc1nc(NC2CCN(S(=O)(=O)c3ccc(Br)cc3)CC2)sc1C(=O)c1c(F)cccc1F [Example P12]
CDK4 % Inhibition at 0.03 μM ([1]; 0.03 μM compound, Table 3): 54%
HCT-116 % Inhibition at 0.1 μM (HCT-116 cell line; [2]): 24%
HCT-116 % Inhibition at 0.25 μM (HCT-116 cell line; HCT-116, Table 3): 29%
CDK2 % Inhibition at 0.03 μM (CDK2/Cyclin A; 0.03 μM compound, Table 3): 54%

Compound: CC1CCC(C)N1CCS(=O)(=O)N1CCC(Nc2nc(N)c(C(=O)c3c(F)cccc3F)s2)CC1 (mixture of isomers) [Example K26, (4-Amino-2-{1-[2-(cis/trans-2,5-dimethyl-pyrrolidin-1-yl)-ethanesulfonyl]-piperidin-4-ylamino}-thiazol-5-yl)-(2,6-difluoro-phenyl)-methanone Trifluoroacetic Acid Salt.]
Ki [1]: 0.0021 µM
IC50 (HCT-116 cell line; first HCT-116 column (c4)): 0.19 µM
IC50 (HCT-116 cell line; second HCT-116 column (c5)): 0.8 µM
Ki (CDK2/Cyclin A): 0.013 µM

Compound: CN1CCC[C@H](Oc2ccc(S(=O)(=O)N3CCC(Nc4nc(N)c(C(=O)c5c(F)cccc5F)s4)CC3)cn2)C1 [Example H29, (4-Amino-2-{1-[6-(1-methyl-piperidin-3S-yloxy)-pyridine-3-sulfonyl]-piperidin-4-ylamino}-thiazol-5-yl)-(2,6-difluoro-phenyl)-methanone Hydrochloride]
Ki [1]: 0.0013 µM
IC50 (HCT-116 cell line; first HCT-116 column (c4)): 0.036 µM
IC50 (HCT-116 cell line; second HCT-116 column (c5)): 0.3 µM
Ki (CDK2/Cyclin A): 0.00052 µM
